Data from ChEMBL document CHEMBL1201862, “PubChem BioAssay data set” (2004).
Calls of active or inactive are those of the source.

Assays:
[1] = blockers of HIV-1 envelope-mediated cell-cell fusion – cherry-pick, dose response (AID 652057); assay type: functional, cell-based
Paired box protein Pax-8 = Paired box protein Pax-8 (Homo sapiens, UniProt Q06710); experiment: PAX8 transcriptional activity inhibition in RMG-I – RMG-I cells, luciferase, cherry-pick, dose response (AID 687027); assay type: functional, cell-based;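 also: luciferase reporter driven by Pax8 target thyroperoxidase promoter measured by SteadyGlo luminescence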
[2] = HIV-1 AD8 envelope cell-cell fusion blockers – cherry-pick, dose response (AID 652062); assay type: functional, cell-based;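 also: luciferase signal from cell-cell fusion driven by HIV-1 clade B AD8 Env; potency is for inhibitors of fusion seen as a drop in luminescence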
[3] = OVCAR-3 cell viability loss – plate reader, dry powder samples, PAX8 inhibitor project, dose response (AID 743044); assay type: functional, cell-based
[4] = IGROV1 cell killing – plate reader, dry powder samples, PAX8 inhibitor project, dose response (AID 743043); assay type: functional, cell-based; settings: IGROV-1
[5] = OVCAR8 cell viability loss – plate reader, dry powder samples, PAX8 project, dose response (AID 743197); assay type: functional, cell-based; settings: OVCAR-8
HEK293 [6] = experiment: inhibition of NOD1-driven NF-kB reporter – cell-based, luminescence, uHTS, primary screen (AID 1578); assay type: functional; settings: Homo sapiens
HEK293 [7] = experiment: cells; assay type: functional, cell-based; settings: Homo sapiens
HEK293 [8] = experiment: cells; assay type: functional, cell-based; settings: Homo sapiens; remark: listed apart in the source
[9] = target: Nucleotide-binding oligomerization domain-containing protein 2 (Homo sapiens, UniProt Q9HC29); experiment: inhibition of NOD2-driven NF-kB reporter – cell-based, luminescence, uHTS, HEK293 (AID 1566); assay type: functional
HEK293 [10] = experiment: NOD2 signaling inhibitors in MDP-stimulated cells, cell-based, uHTS, luminescence (AID 2001); assay type: functional; settings: Homo sapiens
HEK293 [11] = experiment: cells; assay type: functional, cell-based; settings: Homo sapiens; remark: listed apart in the source
[12] = Luminescence Cell-Based Dose Retest to Confirm Inhibitors of Cancer Stem Cells. [Related pubchem assays (depositor defined):AID2717, AID2721]; assay type: functional, Homo sapiens; settings: Homo sapiens
Vero = experiment: viability of Vero cells under compound – cytotoxicity control for flavivirus capping enzyme inhibitors (AID 588742); assay type: functional; settings: Chlorocebus sabaeus
Genome polyprotein = Genome polyprotein (dengue virus type 2, UniProt P29990); experiment: flavivirus cap methylation enzyme inhibition – biochemical, confirmation dose response, primary screen (AID 588689); assay type: functional
[13] = target: T1, Low molecular weight phosphotyrosine protein phosphatase (Homo sapiens, UniProt P24666); assay type: functional; settings: read-out: IC50_Mean;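 also: Dose-response confirmation assay measuring inhibition of LMPTP enzyme activity by fluorescence intensity read-out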
T1 sequence (P24666 whole entry): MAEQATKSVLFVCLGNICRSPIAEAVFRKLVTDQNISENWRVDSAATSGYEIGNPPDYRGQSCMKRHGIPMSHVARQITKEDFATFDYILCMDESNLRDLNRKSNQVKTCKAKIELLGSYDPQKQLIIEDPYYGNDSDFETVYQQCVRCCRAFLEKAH

Hexokinase HKDC1 = target: T2, Hexokinase HKDC1 (Homo sapiens, UniProt Q2TB90); experiment: inhibition of HKDC1 glucose phosphorylation – biochemical, W721R variant, dose response (AID 504729); assay type: functional
T2 sequence (Q2TB90 whole entry): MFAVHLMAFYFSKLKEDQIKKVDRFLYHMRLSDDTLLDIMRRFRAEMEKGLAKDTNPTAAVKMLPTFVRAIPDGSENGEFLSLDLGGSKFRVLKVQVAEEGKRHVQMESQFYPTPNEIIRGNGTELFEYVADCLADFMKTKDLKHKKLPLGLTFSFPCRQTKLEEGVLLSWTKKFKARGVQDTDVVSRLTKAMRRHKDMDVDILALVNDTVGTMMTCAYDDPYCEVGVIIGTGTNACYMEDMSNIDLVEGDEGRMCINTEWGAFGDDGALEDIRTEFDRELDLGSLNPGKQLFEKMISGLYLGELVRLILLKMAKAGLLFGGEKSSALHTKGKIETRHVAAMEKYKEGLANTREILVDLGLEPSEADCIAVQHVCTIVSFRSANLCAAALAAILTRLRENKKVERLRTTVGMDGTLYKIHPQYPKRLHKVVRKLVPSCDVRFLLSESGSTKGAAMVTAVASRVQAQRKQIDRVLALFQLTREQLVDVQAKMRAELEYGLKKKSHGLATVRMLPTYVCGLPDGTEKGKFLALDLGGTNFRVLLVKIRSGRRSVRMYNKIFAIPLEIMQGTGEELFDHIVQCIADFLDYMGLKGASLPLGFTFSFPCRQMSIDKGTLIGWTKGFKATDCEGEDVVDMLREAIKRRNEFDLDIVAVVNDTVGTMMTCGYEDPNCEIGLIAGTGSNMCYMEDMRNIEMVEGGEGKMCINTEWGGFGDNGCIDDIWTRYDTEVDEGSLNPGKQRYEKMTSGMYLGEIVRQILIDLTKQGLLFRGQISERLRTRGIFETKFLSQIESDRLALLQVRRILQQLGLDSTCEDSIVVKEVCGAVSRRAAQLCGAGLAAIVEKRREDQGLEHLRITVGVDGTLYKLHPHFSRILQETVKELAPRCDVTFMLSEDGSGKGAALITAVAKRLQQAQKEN

[14] = reduction of Shn3 3'UTR-driven luciferase in osteoblasts – cell-based, Clone20 osteoblasts, firefly luciferase, cherry-picked, dose response (AID 624132); assay type: functional;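 also: firefly luciferase luminescence from reporter carrying the Shn3 3'UTR in osteoblasts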
[15] = non-specific 3'UTR reporter inhibition in Clone20-Shn3RL – cell-based, Renilla luciferase, cherry-picked, counter-screen for Shn3 inhibitor project, dose response (AID 624133); assay type: functional
[16] = growth inhibition of yeast DHODH-expressing 3D7 parasites – SYBR Green, dry powder samples, dose response (AID 1159570); assay type: functional, cell-based;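 also: parasite growth measured after 72 hours of compound exposure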
[17] = Dd2 malaria parasite growth inhibition potency – SYBR Green, dry powder samples, dose response (AID 1159566); assay type: functional, cell-based;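 also: potency for growth inhibition with lower SYBR green DNA signal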
[18] = growth inhibition of PfATP4-mutant resistant parasites – NITD609-resistant line, SYBR Green, dry powder, dose response (AID 1159571); assay type: functional, cell-based;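 also: parasites synchronized at ring stage by sorbitol before testing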
[19] = target: T3, Replicative DNA helicase DnaB (Mycobacterium tuberculosis, UniProt P9WMR3); experiment: DnaB intein splicing inhibitors, dose response, biochemical, cell-free fluorescence (AID 449749); assay type: functional
T3 sequence (P9WMR3 whole entry): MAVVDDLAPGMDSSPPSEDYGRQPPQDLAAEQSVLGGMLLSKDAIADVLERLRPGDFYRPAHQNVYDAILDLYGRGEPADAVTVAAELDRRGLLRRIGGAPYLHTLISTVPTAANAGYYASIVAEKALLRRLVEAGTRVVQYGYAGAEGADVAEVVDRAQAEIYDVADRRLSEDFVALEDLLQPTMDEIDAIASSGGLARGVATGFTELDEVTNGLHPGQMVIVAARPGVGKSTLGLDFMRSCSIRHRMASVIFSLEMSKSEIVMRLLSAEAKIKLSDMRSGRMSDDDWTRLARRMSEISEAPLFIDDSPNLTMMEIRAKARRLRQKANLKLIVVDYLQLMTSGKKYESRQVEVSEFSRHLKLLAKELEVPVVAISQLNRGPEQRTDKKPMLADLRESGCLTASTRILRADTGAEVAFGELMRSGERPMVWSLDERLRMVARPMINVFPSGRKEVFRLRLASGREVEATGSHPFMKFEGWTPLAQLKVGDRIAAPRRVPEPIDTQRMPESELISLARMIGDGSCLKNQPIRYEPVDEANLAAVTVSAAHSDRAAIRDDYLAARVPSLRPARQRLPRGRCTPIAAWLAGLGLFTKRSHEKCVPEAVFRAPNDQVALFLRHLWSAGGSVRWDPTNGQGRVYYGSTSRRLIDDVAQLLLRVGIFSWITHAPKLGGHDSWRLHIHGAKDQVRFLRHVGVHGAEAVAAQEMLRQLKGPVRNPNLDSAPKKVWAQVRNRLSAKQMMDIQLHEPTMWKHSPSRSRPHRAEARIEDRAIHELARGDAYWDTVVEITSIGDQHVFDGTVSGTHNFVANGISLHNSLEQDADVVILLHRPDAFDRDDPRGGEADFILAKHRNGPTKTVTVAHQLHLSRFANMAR

Protein RecA = target: T4, Protein RecA (Mycobacterium tuberculosis, UniProt P9WHJ3); experiment: Fluorescence Cell-Free Homogeneous Dose Retest to Identify Inhibitors of RecA-Intein Splicing Activity. [Related pubchem assays (depositor defined):AID2097, AID2223, AID489010, AID492950]; assay type: functional
T4 sequence (P9WHJ3 whole entry): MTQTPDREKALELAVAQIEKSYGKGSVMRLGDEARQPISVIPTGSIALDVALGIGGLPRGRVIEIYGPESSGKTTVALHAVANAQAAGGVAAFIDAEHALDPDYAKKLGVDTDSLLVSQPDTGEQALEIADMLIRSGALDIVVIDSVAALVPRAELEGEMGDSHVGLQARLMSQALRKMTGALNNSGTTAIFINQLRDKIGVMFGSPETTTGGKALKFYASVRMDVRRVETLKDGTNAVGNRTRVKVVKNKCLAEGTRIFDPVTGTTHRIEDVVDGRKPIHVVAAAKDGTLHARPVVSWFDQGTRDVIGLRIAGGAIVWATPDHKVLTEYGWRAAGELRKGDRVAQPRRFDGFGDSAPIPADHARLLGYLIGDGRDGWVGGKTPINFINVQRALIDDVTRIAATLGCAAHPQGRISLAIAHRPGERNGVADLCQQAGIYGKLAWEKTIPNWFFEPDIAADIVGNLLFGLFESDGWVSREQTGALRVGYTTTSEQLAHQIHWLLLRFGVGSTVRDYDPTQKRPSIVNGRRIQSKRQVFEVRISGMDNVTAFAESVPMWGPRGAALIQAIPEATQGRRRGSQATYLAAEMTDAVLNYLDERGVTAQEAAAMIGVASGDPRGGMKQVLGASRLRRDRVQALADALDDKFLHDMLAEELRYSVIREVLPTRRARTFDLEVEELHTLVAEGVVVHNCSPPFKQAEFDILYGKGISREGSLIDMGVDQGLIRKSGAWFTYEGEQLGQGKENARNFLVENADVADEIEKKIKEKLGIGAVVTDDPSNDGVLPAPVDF

[20] = microbe, parasite or virus in culture; assay type: functional; settings: Mycobacterium tuberculosis
[21] = viability of PTEN-deleted HCT116 cells – cell-based, HCT116 PTEN knockout, dose response (AID 1047); assay type: functional;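 also: HCT116 colon tumor cells with PTEN knocked out; cells exposed to compound for 60 hours before readout; potency for loss of cell viability measured by luminescence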
[22] = viability of HCT116 lacking mutant beta-catenin – cell-based, human colon tumor, dose response (AID 1045); assay type: functional;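 also: HCT116 colon tumor cells with beta catenin knocked out; cells exposed to compound for 60 hours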

Nucleotide-binding oligomerization domain-containing protein 2, sequence (Q9HC29 whole entry, the tested form may be a part): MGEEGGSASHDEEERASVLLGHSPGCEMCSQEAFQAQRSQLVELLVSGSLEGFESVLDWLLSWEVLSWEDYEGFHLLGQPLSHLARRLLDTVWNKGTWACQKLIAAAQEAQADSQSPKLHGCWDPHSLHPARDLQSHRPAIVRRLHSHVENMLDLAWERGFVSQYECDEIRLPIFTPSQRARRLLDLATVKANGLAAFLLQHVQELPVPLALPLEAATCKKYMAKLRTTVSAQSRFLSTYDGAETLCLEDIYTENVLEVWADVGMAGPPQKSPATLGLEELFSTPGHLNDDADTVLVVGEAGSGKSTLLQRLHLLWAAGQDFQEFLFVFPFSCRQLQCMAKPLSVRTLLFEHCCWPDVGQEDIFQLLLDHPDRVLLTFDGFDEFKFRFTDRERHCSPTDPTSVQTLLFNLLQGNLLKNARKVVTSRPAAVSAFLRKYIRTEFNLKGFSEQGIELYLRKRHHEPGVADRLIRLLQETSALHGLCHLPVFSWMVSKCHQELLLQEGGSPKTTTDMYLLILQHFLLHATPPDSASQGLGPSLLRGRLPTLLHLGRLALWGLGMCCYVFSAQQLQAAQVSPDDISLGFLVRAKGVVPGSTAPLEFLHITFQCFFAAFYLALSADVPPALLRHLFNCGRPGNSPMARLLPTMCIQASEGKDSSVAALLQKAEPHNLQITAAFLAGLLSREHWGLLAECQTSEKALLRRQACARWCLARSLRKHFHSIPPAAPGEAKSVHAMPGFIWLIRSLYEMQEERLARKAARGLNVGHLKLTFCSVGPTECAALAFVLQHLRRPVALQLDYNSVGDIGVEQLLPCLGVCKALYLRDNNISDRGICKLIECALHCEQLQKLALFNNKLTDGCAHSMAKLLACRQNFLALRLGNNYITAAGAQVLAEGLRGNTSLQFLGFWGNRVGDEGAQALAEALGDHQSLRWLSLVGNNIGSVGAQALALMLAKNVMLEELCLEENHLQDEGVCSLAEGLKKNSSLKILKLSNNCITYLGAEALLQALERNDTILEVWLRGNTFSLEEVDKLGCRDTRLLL
Paired box protein Pax-8, sequence (Q06710 whole entry, the tested form may be a part): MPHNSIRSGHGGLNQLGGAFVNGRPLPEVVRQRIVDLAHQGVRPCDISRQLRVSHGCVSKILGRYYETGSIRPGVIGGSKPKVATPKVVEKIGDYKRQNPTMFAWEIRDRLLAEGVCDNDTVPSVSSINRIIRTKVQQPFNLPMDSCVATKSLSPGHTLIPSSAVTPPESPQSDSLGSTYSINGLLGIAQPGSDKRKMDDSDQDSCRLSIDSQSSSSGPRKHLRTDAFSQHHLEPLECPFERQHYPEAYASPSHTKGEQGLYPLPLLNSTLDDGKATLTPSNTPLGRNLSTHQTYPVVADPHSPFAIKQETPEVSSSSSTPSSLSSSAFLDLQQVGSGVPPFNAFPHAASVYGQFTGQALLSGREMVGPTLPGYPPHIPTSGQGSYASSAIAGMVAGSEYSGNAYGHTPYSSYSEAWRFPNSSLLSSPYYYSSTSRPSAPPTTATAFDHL
Genome polyprotein, sequence (P29990 2492-3391 limits assumed): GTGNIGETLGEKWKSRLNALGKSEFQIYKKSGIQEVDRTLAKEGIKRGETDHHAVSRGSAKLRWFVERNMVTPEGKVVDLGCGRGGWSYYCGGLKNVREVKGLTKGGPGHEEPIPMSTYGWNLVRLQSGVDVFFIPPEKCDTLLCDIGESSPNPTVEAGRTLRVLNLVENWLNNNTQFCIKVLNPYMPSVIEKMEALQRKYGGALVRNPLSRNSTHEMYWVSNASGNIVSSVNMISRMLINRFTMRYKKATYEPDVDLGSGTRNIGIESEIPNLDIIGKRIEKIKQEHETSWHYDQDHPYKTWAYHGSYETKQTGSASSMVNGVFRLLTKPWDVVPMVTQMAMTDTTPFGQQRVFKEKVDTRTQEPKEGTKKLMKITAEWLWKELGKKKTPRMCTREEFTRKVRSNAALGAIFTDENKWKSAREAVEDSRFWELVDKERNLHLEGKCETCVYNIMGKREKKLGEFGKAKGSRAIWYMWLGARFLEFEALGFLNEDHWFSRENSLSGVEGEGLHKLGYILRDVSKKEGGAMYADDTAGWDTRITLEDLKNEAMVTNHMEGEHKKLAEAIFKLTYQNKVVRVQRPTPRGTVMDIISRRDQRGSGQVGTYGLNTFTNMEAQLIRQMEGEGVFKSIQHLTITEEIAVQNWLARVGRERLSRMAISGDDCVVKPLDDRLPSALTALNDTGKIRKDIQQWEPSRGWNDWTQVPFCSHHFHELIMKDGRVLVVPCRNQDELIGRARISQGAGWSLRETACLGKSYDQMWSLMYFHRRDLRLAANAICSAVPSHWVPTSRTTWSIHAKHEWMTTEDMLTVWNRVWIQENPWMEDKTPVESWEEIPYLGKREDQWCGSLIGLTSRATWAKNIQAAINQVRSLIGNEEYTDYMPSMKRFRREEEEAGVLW

Cc1noc(C)c1S(=O)(=O)Nc1ccc2c(c1)CC(=O)N([C@@H](C)CO)C[C@@H](C)[C@H](CN(C)Cc1ccc(Cl)c(Cl)c1)O2
active: AC50 [1] 10.9 µM | AC50 (Paired box protein Pax-8) 1.19 µM | AC50 [2] 1.42 µM | AC50 [3] 41.1 µM | AC50 [4] 12.6 µM | AC50 [5] 21.1 µM

NC(=O)c1c(NC(=O)C(=O)N2CCOCC2)sc2c1CCCC2
inactive: EC50 (HEK293 [6]) > 20 µM | IC50 (HEK293 [7]) > 20 µM | IC50 (HEK293 [8]) > 20 µM | EC50 [9] > 20 µM | IC50 (HEK293 [10]) > 20 µM | IC50 (HEK293 [11]) > 20 µM

C[C@H](CO)N1C[C@H](C)[C@@H](CN(C)Cc2ccc(-c3ccccc3)cc2)Oc2ccc(NS(=O)(=O)c3ccc(F)cc3)cc2CC1=O
active: AC50 (Paired box protein Pax-8) 8.82 µM | AC50 [3] 29.7 µM | AC50 [4] 27.8 µM | AC50 [5] 55.8 µM

Cc1ccc(S(=O)(=O)Nc2ccccc2-c2ccccc2NS(=O)(=O)c2ccc(C)cc2)cc1
inactive: IC50 (HEK293 [8]) > 20 µM | IC50 (HEK293 [10]) 10 µM | IC50 (HEK293 [11]) > 20 µM
active: EC50 (HEK293 [6]) 4.99 µM | IC50 (HEK293 [7]) 11.8 µM | EC50 [9] 11.5 µM | AC50 [12] 6.86 µM | CC50 (Vero) > 40 µM | IC50 (Genome polyprotein) 54.8 µM

CCn1cc(C(=O)O)c(=O)c2cc(F)c(N3CCN(C(=S)NC(=O)c4cccc(C)c4)CC3)cc21
active: IC50 [13] 2.74 µM

COc1cc(C2c3c([nH]c(=O)[nH]c3=O)Nc3ccc4ccccc4c32)cc(OC)c1OC (stereo unspecified)
active: IC50 (Hexokinase HKDC1) 15.2 µM

Cc1nc(SCCC(=O)O)c2cc(-c3ccccc3)sc2n1
inactive: EC50 (HEK293 [6]) > 20 µM | IC50 (HEK293 [8]) > 20 µM | EC50 [9] > 20 µM | IC50 (HEK293 [10]) > 20 µM | IC50 (HEK293 [11]) > 20 µM
active: IC50 (HEK293 [7]) 4.5 µM

CCn1cc(C(=O)O)c(=O)c2cc(F)c(N3CCN(C(=S)NC(=O)c4ccc(Br)cc4)CC3)cc21
active: IC50 [13] 3.17 µM

COc1cc(OC)c(OC)cc1/C=C1\CC(C)C/C(=C\c2cc(OC)c(OC)cc2OC)C1=O (stereo unspecified)
active: EC50 (HEK293 [6]) 6.38 µM | IC50 (HEK293 [7]) 5.7 µM | IC50 (HEK293 [8]) 15.7 µM | EC50 [9] 7.31 µM | IC50 (HEK293 [10]) 6.92 µM | AC50 [14] 3.22 µM | AC50 [15] 5.08 µM
inactive: IC50 (HEK293 [11]) > 20 µM

OC[C@H]1[C@H](c2ccccc2)C2(CN(Cc3ccccc3F)C2)N1Cc1ccccc1F
active: AC50 [16] 1.1 µM | AC50 [17] 0.542 µM | AC50 [18] 1.15 µM

Cc1ccc(S(=O)(=O)Nc2c(O)ccc3ccccc23)cc1
active: IC50 (Hexokinase HKDC1) 16.1 µM | AC50 [19] 8.03 µM | EC50 (Protein RecA) 0.939 µM

O=C(Nc1ccccc1-c1nc2ccccc2s1)C1=COCCO1
active: IC50 [13] 11.7 µM

CCOC(=O)CSc1nc2ccc(C)cc2n2cnnc12
active: IC50 (Hexokinase HKDC1) 9.55 µM

O=C1c2ccccc2-c2onc3ccc(Oc4ccccc4)c1c23
inactive: IC50 (Hexokinase HKDC1) 70.7 µM
active: CC50 [20] 9.25 µM | EC50 [21] 6.21 µM | EC50 [22] 6.7 µM | AC50 [19] 1.38 µM | EC50 (Protein RecA) 0.452 µM
